# Patent US11236069B2, “KIF18A inhibitors” (AMGEN INC., priority 2018, dated 2022)
# Target: Recombinant human KIF18A (1-467 His-tagged) protein (Homo sapiens (Human), UniProt Q8NI77)
# Assay: KIF18A Enzyme Assay: microtubule-stimulated ATPase activity (ADP-Glo)
# Details: read-out: KIF18A ATPase IC50
# Text: KIF18A Enzyme Assay: Microtubule-stimulated ATPase activity assay is used to measure KIF18A enzyme activity after treatment with compound. Compounds were 2-fold serially diluted in DMSO (Sigma Inc) over 22-point concentration range. […] The assay measures ADP formed from the ATPase reaction.
# Recombinant human KIF18A (1-467 His-tagged) protein, sequence (Q8NI77 1-467): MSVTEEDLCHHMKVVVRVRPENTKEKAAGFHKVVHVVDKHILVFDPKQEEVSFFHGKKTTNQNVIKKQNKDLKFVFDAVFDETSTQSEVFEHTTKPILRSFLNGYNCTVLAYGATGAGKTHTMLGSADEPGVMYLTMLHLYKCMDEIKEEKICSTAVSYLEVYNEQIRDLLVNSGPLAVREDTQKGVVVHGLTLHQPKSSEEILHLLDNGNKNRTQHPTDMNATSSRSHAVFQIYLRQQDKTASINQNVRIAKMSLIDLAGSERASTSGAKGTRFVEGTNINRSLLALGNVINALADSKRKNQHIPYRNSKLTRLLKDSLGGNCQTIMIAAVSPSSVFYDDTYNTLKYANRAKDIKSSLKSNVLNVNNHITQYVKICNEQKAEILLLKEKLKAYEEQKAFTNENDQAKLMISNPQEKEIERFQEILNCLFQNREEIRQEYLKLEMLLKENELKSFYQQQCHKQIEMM
# Recombinant human KIF18A (1-467 His-tagged) protein, sequence (P02550 whole entry partner): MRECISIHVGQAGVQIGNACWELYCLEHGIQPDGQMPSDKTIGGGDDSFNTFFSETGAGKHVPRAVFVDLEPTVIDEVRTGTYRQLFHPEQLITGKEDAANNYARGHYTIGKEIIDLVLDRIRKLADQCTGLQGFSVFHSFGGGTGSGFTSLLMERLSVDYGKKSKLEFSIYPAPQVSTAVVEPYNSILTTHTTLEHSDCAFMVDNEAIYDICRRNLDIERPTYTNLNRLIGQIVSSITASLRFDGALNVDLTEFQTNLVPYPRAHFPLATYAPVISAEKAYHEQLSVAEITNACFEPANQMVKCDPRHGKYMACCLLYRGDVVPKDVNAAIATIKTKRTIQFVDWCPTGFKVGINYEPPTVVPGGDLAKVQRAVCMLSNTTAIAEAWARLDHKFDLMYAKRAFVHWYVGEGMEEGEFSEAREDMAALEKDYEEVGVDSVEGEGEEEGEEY
# Recombinant human KIF18A (1-467 His-tagged) protein, sequence (P02554 whole entry partner): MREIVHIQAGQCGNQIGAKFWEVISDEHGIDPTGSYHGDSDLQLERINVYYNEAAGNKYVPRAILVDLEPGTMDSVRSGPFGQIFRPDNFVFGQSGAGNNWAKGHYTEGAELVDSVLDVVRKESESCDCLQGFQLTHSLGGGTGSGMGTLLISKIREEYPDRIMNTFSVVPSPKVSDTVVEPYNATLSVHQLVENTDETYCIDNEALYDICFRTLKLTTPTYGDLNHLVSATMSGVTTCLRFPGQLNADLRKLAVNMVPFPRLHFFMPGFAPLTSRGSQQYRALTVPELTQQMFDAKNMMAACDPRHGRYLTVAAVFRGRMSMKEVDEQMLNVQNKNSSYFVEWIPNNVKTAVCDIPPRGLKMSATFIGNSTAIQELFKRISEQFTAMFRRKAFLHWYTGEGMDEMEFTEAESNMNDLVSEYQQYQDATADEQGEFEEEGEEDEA
row,Structure (SMILES),IC50
1,"Cc1cc(NC(=O)c2ccc(NS(=O)(=O)[C@H](C)CO)cc2N2CCC3(CC2)CC3)nc(N2CCC(F)(F)CC2)n1 [Example 5-1, (R)-N-(2-(4,4-Difluoropiperidin-1-yl)-6-methylpyrimidin-4-yl)-4-((2-hydroxy-1-methylethyl)sulfonamido)-2-(6-azaspiro[2.5]octan-6-yl)benzamide]",62 nM
2,"Cc1cc(NC(=O)c2ccc(NS(=O)(=O)[C@@H](C)CO)cc2N2CCC3(CC2)CC3)nc(N2CCC(F)(F)CC2)n1 [Example 5-2, (S)-N-(2-(4,4-Difluoropiperidin-1-yl)-6-methylpyrimidin-4-yl)-4-((2-hydroxy-1-methylethyl)sulfonamido)-2-(6-azaspiro[2.5]octan-6-yl)benzamide]",70 nM

# Same assay, conditions: read-out: KIF18A ATPase IC50; 30 nM KIF18A, 30 μg/mL pig microtubules, ATP at Km 75 μM, ADP-Glo luminescence
row,Structure (SMILES),IC50
1,"Cc1cc(NC(=O)c2ccc(NS(=O)(=O)CCO)cc2N2CCC3(CC2)CC3)nc(N2CC3(COC3)C2)n1 [Example 11-8, 4-((2-Hydroxyethyl)sulfonamido)-N-(6-methyl-2-(2-oxa-6-azaspiro[3.3]heptan-6-yl)pyrimidin-4-yl)-2-(6-azaspiro[2.5]octan-6-yl)benzamide]",640 nM
2,"Cc1cc(NC(=O)c2ccc(S(=O)(=O)CC(C)(C)O)cc2N2CCC3(CC2)CC3)nc(N2CCC(F)(F)CC2)n1 [Example 14-4, N-(2-(4,4-Difluoropiperidin-1-yl)-6-methylpyrimidin-4-yl)-4-((2-hydroxy-2-methylpropyl)sulfonyl)-2-(6-azaspiro[2.5]octan-6-yl)benzamide]",806 nM
3,"Cc1cc(NC(=O)c2ccc(NS(=O)(=O)CCO)cc2N2CCC3(CC2)CC3)nc(N2CCC[C@@H](O)C2)n1 [Example 11-54, (R)-4-((2-Hydroxyethyl)sulfonamido)-N-(2-(3-hydroxypiperidin-1-yl)-6-methylpyrimidin-4-yl)-2-(6-azaspiro[2.5]octan-6-yl)benzamide]",74 nM
4,"Cc1cc(NC(=O)c2ccc(NS(=O)(=O)CCO)cc2N2CCC3(CC2)CC3)nc(N2CC(C)(O)C2)n1 [Example 11-15, N-(2-(3-Hydroxy-3-methylazetidin-1-yl)-6-methylpyrimidin-4-yl)-4-((2-hydroxyethyl)sulfonamido)-2-(6-azaspiro[2.5]octan-6-yl)benzamide]",935 nM
5,"Cc1cc(NC(=O)c2ccc(NS(C)(=O)=O)cc2N2CCC3(CC2)CC3)nc(N2CCO[C@H](C)C2)n1 [Example 6-5, (R)-N-(6-Methyl-2-(2-methylmorpholino)pyrimidin-4-yl)-4-(methylsulfonamido)-2-(6-azaspiro[2.5]octan-6-yl)benzamide]",120 nM
6,"Cc1cc(NC(=O)c2ccc(S(=O)(=O)[C@@H]3CCC[C@H]3O)cc2N2CCC3(CC2)CC3)nc(N2CCC(F)(F)CC2)n1 [Example 14-9, N-(2-(4,4-Difluoropiperidin-1-yl)-6-methylpyrimidin-4-yl)-4-(((1R,2R)-2-hydroxycyclopentyl)sulfonyl)-2-(6-azaspiro[2.5]octan-6-yl)benzamide]",195 nM
7,"Cc1cc(NC(=O)c2ccc(NS(=O)(=O)CCO)cc2N2CCC3(CC2)CC3)nc(N2CC(O)(C3CC3)C2)n1 [Example 11-16, N-(2-(3-Cyclopropyl-3-hydroxyazetidin-1-yl)-6-methylpyrimidin-4-yl)-4-((2-hydroxyethyl)sulfonamido)-2-(6-azaspiro[2.5]octan-6-yl)benzamide]",1010 nM
8,"Cc1cc(NC(=O)c2ccc([S@@](=N)(=O)C3CC3)cc2N2CCC3(CC2)CC3)nc(N2CCO[C@H](C)C2)n1 [Example 19-8, 2-(6-Azaspiro[2.5]octan-6-yl)-4-(R-cyclopropylsulfonimidoyl)-N-(6-methy-2-((2R)-2-methyl-4-moprpholinyl)-4-pyrimidinyl)benzamide]",78 nM
9,"CCS(=O)(=O)c1ccc(C(=O)Nc2cc(C)nc(N3CCC(F)(F)CC3)n2)c(N2CCC3(CC2)CC3)c1 [Example 14-2, N-(2-(4,4-Difluoropiperidin-1-yl)-6-methylpyrimidin-4-yl)-4-(ethylsulfonyl)-2-(6-azaspiro[2.5]octan-6-yl)benzamide]",108 nM
10,"Cc1cc(NC(=O)c2cc(F)c(NS(=O)(=O)[C@@H](C)CO)cc2N2CCC3(CC2)CC3)nc(N2CCC(F)(F)CC2)n1 (single isomer, unassigned) [Example 8-2]",73 nM
11,"Cc1cc(NC(=O)c2ccc(NS(=O)(=O)C3([C@@H](C)O)CC3)cc2N2CCC3(CC2)CC3)nc(N2CCC(F)(F)CC2)n1 [Example 6-31-1, (R)-N-(2-(4,4-Difluoropiperidin-1-yl)-6-methylpyrimidin-4-yl)-4-((1-(1-hydroxyethyl)cyclopropane)-1-sulfonamido)-2-(6-azaspiro[2.5]octan-6-yl)benzamide]",324 nM
12,"Cc1cc(NC(=O)c2ccc(NS(=O)(=O)C[C@H](C)O)cc2N2CCC3(CC2)CC3)nc(N2CC(F)(F)C2)n1 (single isomer, unassigned) [Example 10-2]",73 nM

# Further lines, results first:
row,IC50,Structure (SMILES)
1,72 nM,"Cc1cc(NC(=O)c2ccc(NS(=O)(=O)[C@H]3CCOC3)cc2N2CCC3(CC2)CC3)nc(N2CC(F)(F)C2)n1 [Example 11-70, (S)-N-(2-(3,3-Difluoroazetidin-1-yl)-6-methylpyrimidin-4-yl)-2-(6-azaspiro[2.5]octan-6-yl)-4-((tetrahydrofuran)-3-sulfonamido)benzamide]"
2,70 nM,"Cc1cc(NC(=O)c2ccc(NS(=O)(=O)CCO)cc2N2CCC3(CC2)CC3)nc(OCCC(F)(F)F)n1 [Example 11-61, 4-((2-Hydroxyethyl)sulfonamido)-N-(6-methyl-2-(3,3,3-trifluoropropoxy)pyrimidin-4-yl)-2-(6-azaspiro[2.5]octan-6-yl)benzamide]"
3,65 nM,"Cc1cc(NC(=O)c2ccc(S(=O)(=O)NC3(C)COC3)cc2N2CCC3(CC2)CC3)nc(C(C)(C)O)n1 [Example 2-1, N-(2-(2-Hydroxypropan-2-yl)-6-methylpyrimidin-4-yl)-4-(N-(3-methyloxetan-3-yl)sulfamoyl)-2-(6-azaspiro[2.5]octan-6-yl)benzamide]"
4,60 nM,"Cc1cc(NC(=O)c2ccc(NS(C)(=O)=O)cc2N2CCC3(CC2)CC3)nc(N2CCC(F)CC2)n1 [Example 11-81, N-(2-(4-Fluoropiperidin-1-yl)-6-methylpyrimidin-4-yl)-4-(methylsulfonamido)-2-(6-azaspiro[2.5]octan-6-yl)benzamide]"
5,58 nM,"O=C(Nc1ccnc(OCCC(F)(F)F)c1)c1ccc(NS(=O)(=O)CCO)cc1N1CCC2(CC1)CC2 [Example 11-59, 4-((2-Hydroxyethyl)sulfonamido)-2-(6-azaspiro[2.5]octan-6-yl)-N-(2-(3,3,3-trifluoropropoxy)pyridin-4-yl)benzamide]"
6,57 nM,"Cc1cc(NC(=O)c2ccc(NS(=O)(=O)CCO)cc2N2CCC3(CC2)CC3)nc(OC(C)C)n1 [Example 11-79, 4-((2-Hydroxyethyl)sulfonamido)-N-(2-isopropoxy-6-methylpyrimidin-4-yl)-2-(6-azaspiro[2.5]octan-6-yl)benzamide]"
7,49 nM,"Cc1cc(NC(=O)c2ccc(NS(=O)(=O)C(C)(C)CO)cc2N2CCC3(CC2)CC3)nc(N2CCC(F)(F)CC2)n1 [Example 6-20, N-(2-(4,4-Difluoropiperidin-1-yl)-6-methylpyrimidin-4-yl)-4-((2-hydroxy-1,1-dimethylethyl)sulfonamido)-2-(6-azaspiro[2.5]octan-6-yl)benzamide]"
8,34 nM,"Cc1cc(NC(=O)c2ccc(NS(=O)(=O)[C@@H](C)CO)cc2N2CCC3(CC2)CC3)nc(N2CC(F)(F)C2)n1 [Example 11-77, (S)-N-(2-(3,3-Difluoroazetidin-1-yl)-6-methylpyrimidin-4-yl)-4-((2-hydroxy-1-methylethyl)sulfonamido)-2-(6-azaspiro[2.5]octan-6-yl)benzamide]"
9,32 nM,"COCCS(=O)(=O)Nc1ccc(C(=O)Nc2cc(C)nc(N3CCC(F)(F)CC3)n2)c(N2CCC3(CC2)CC3)c1 [Example 6-17, N-(2-(4,4-Difluoropiperidin-1-yl)-6-methylpyrimidin-4-yl)-4-((2-methoxyethyl)sulfonamido)-2-(6-azaspiro[2.5]octan-6-yL)benzamide]"
10,21 nM,"C[C@H](CO)S(=O)(=O)Nc1ccc(C(=O)Nc2ccnc(N3CCC(F)(F)CC3)n2)c(N2CCC3(CC2)CC3)c1 [Example 6-26-2, (R)-N-(2-(4,4-Difluoropiperidin-1-yl)pyrimidin-4-yl)-4-((2-hydroxy-1-methylethyl)sulfonamido)-2-(6-azaspiro[2.5]octan-6-yl)benzamide]"
11,20 nM,"Cc1cc(NC(=O)c2ccc(NS(=O)(=O)CCO)cc2N2CCC3(CC2)CC3)nc(N2C[C@H]3C[C@H]3C2)n1 [Example 11-29, N-(2-((1R,5S)-3-Azabicyclo[3.1.0]hexan-3-yl)-6-methylpyrimidin-4-yl)-4-((2-hydroxyethyl)sulfonamido)-2-(6-azaspiro[2.5]octan-6-yl)benzamide]"
12,18 nM,"Cc1cc(NC(=O)c2ccc(NS(=O)(=O)CCO)cc2N2CCC3(CC2)CC3)nc(NC(C)(C)CO)n1 [Example 11-62, N-(2-((1-Hydroxy-2-methylpropan-2-yl)amino)-6-methylpyrimidin-4-yl)-4-((2-hydroxyethyl)sulfonamido)-2-(6-azaspiro[2.5]octan-6-yl)benzamide]"
13,17.6 nM,"Cc1cc(NC(=O)c2ccc(NS(=O)(=O)CCO)cc2N2CCC3(CC2)CC3)nc(N2CCC3(CC3)C2)n1 [Example 11-25, 4-((2-Hydroxyethyl)sulfonamido)-N-(6-methyl-2-(5-azaspiro[2.4]heptan-5-yl)pyrimidin-4-yl)-2-(6-azaspiro[2.5]octan-6-yl)benzamide]"
14,17.4 nM,"C[C@@H]1CN(c2nccc(NC(=O)c3ccc(NS(=O)(=O)[C@@H](C)CO)cc3N3CCC4(CC3)CC4)n2)CCO1 [Example 6-24-1, 4-(((S)-2-Hydroxy-1-methylethyl)sulfonamido)-N-(2-((R)-2-methylmorpholino)pyrimidin-4-yl)-2-(6-azaspiro[2.5]octan-6-yl)benzamide]"
15,17 nM,"O=C(Nc1ccnc(N2CCC(F)(F)CC2)c1)c1ccc(NS(=O)(=O)CCO)cc1N1CCC2(CC1)CC2 [Example 6-29, N-(2-(4,4-Difluoropiperidin-1-yl)pyridin-4-yl)-4-((2-hydroxyethyl)sulfonamido)-2-(6-azaspiro[2.5]octan-6-yl)benzamide]"
